Assay results from patent publication US10166412B2, “Skin lightening composition comprising 4-hexylresorcinol and ilomastat” (Conopco, Inc., priority 2014, dated 2019).

Assays:
[1] = test system: primary human melanocytes; assay: Melanin content assay in primary human melanocytes; assay type: cell-based; details: for inhibition at 1 µM / inhibition at 10 µM: Homo sapiens, Melanocyte, 72 hrs treatment, corrected for cell numbers, read-out: Average % inhibition of cellular melanin; for reduction of melanin content (in words): primary human melanocytes
Method: (i) Cell Cultures: • Neonatal foreskin primary human melanocytes were procured from Life Technologies, USA. Cells were grown in Medium 254 supplemented with human melanocyte growth supplement-2 and maintained at 37° C. in a humidified incubator with 5% CO2 atmosphere. The maintenance and sub culturing of cells were carried out as per the manufacturer's instructions. Cells between passages 3-6 were used for experimentation.
(ii) Active Addition: • Cells were seeded at a density of 5×10^4/well in a 24 well plate in Melanocyte Growth Media (MGM) and incubated for 24 hrs at 37° C./5% CO2. Actives were added to cells along with relevant controls. 72 hrs post active treatment, cell viability was determined using the Calcein method followed by measurement of cellular melanin content (described in below sections).
(iii) Cell Viability Assay: • Briefly, spent media was removed and cells washed once with 0.2 ml of 1× PBS-Ca—Mg solution. Fresh 1 μM calcein-AM in PBS buffer was added to each well. Plates were incubated for 30 min. at 37° C. in a CO2 incubator. Calcein fluorescence was then measured (excitation at 490 nm and emission at 520 nm) in TECAN M1000 plate reader.
(iv) Melanin Content Assay: • After Calcein measurements, cultures were rinsed with PBS (1×) and lysed for 1 hour at 60° C. in a shaker incubator using NaOH/DMSO mix. Melanin content was measured in a Tecan plate reader (405 nm filter), corrected for cell numbers and represented as % inhibition.

[2] = target: T1, Tyrosinase enzyme (Homo sapiens, UniProt P14679); assay: In vitro human tyrosinase activity assay (melanocytic lysate); assay type: biochemical
T1 construct: Primary human melanocytic lysate was used as a source of Tyrosinase enzyme; endogenous in cells; host or cells: primary human melanocytes (lysate)
T1 sequence (P14679 19-529): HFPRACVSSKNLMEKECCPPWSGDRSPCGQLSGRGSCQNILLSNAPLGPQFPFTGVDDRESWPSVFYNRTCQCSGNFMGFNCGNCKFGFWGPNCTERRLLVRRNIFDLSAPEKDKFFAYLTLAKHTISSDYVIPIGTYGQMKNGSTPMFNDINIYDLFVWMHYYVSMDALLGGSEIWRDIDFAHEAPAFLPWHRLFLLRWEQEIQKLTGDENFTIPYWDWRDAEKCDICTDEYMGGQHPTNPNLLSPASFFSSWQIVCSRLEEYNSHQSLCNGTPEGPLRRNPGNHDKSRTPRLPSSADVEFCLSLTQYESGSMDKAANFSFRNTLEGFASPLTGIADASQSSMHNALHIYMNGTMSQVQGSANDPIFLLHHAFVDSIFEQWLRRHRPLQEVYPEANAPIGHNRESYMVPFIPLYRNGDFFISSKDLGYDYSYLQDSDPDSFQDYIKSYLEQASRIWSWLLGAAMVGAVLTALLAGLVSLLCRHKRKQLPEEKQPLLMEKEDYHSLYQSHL
Method: (v) In Vitro Human Tyrosinase Activity Assay: • Primary human melanocytic lysate was used as a source of Tyrosinase enzyme. Human melanocytic lysate and test actives (at different concentrations) were incubated together for 15 mins, prior to addition of Tyrosine/DOPA substrate mix. Assay plate was then incubated at 37° C. for ˜14-16 hrs. Optical Density was measured at 405 nm and % inhibition of Tyrosinase activity calculated. Results

Compound	inhibition at 1 µM [1]	inhibition at 10 µM [1]	reduction of melanin content (in words) ([1]; concentration not specified)	direct modulation / inhibition of Tyrosinase enzyme activity (in words) [2]	inhibition at 1 µM ([2]; 1 μM)	inhibition at 5 µM ([2]; 5 μM)	inhibition at 10 µM ([2]; 10 μM)	inhibition at 50 µM ([2]; 50 μM)	reduction of melanin content (in words) ([1]; at 1 μM)	reduction of melanin content (in words) ([1]; at 10 μM)
CCCCCCc1ccc(O)cc1O [4-HR, 4-Hexylresorcinol]	11%	38%	significant reduction in melanin content	through direct modulation of Tyrosinase enzyme activity	28%	55%	78%	78%		
CNC(=O)[C@H](Cc1c[nH]c2ccccc12)NC(=O)[C@@H](CC(=O)NO)CC(C)C [Galardin, (R)-N4-Hydroxy-N1-[(S)-2-(1H-indol-3-yl)-1-methylcarbamoyl-ethyl]-2-isobutyl-succinamide]	7%	17%							no reduction	modest reduction
